Assays:
[1] = target: T1, p38δ (Homo sapiens, UniProt O15264); test: Cellular assay of target protein degradation (MDA-MB-231 cells, ELISA); format: cell-based; settings: for DC50: read-out: p38δDC50/nM [MDA-MB-231]
T1 construct: endogenous in cells; host or cells: MDA-MB-231 (intact cells for degradation; cleared cell lysate for CETSA)
T1 sequence (O15264 1-365): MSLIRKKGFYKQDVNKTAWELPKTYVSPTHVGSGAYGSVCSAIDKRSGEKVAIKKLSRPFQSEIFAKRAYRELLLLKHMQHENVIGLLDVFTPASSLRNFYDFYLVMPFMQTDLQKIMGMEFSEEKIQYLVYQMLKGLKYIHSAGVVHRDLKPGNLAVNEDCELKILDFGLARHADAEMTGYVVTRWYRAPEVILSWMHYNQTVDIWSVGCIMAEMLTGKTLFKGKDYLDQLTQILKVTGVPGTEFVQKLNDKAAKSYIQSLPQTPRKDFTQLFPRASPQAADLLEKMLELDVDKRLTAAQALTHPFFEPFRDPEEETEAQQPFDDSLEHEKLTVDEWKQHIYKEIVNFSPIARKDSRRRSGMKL
Experimental: (§1) Protocol of the cellular assay of target protein degradation (MDA-MB-231 cells, ELISA).
(§2) For detection Cell Signaling PathScan Sandwich ELISA Catalog#12850 was used. MDA-MB-231 cells and […] were cultured in ATCC DMEM+ATCC FBS and plated 40,000/well 100 μl/well in RPMI P/S with 5% CSS Omega (bovine) serum into a 96 well plate. The cells were grown for a minimum of 3 days, dosed with compounds in 0.1% DMSO (diluted with 5% CSS) and incubated with aspiration for 4 hours. 100 μl of 1× Cell Signaling lysis buffer #9803 (36 mL dH2O+4 mL Cell Signaling lysis buffer) was added. The incubation was placed on cold room shaker for 10 minutes at speed 8-9.5 μl to 100 μL of Diluent was transferred to ELISA plate (0.15 μg/mL-0.075 μg/mL) and stored at 4° C. overnight on cold room shaker speed 5 (gentle swirl) and then shaken next morning at 37° C. for 30 minutes. The preparation was washed 4×200 μl with ELISA wash buffer and aspirated with eight-channel aspirator. 100 μl/well of target protein detection antibody was added after, which the preparation was covered and shaken at 37° C. for 1 hour. 100 μl TMB was added, and the mixture was shaken for 5 min while under observation. When TMB turned light blue, 100 μl of Stop solution was added, and the mixture was shaken and read at 450 nm. Also read at 562 nm for background subtraction.

[2] = target: T2, p38α (Homo sapiens, UniProt Q16539); test: as above; format: cell-based
T2 construct: selectively degrades p38α, whereas exemplary PROTAC 46 (10-atom linker, phenyl attachment) selectively degrades p38δ in MDA-MB-231 cells; endogenous in cells; host or cells: MDA-MB-231
Experimental: as §1, §2

[3] = target: T1, p38δ; test: Western blot survey of p38 isoform degradation in MDA-MB-231 cells (incl. proteasome rescue, CHX chase, washout); format: cell-based; settings: MDA-MB-231 cells, western blot
Experimental: (§3) FIGS. 11A and 11B. Survey of p38 isoform degradation with foretinib-based VHL PROTACs (related to FIGS. 9A-9C and Table 13). (A) Western blots of amide series PROTACs tested in increasing concentrations (0.025, 0.100, 0.250, 1.0, 5.0 μM) on MDA-MB-231 cells, in duplicate. (B) Same as in (A) but with the phenyl series PROTACs. Summary table of the DC50 (concentration at which half-maximal degradation is achieved) and Dmax (maximum percentage of degradation achieved) is reported, per exemplary PROTAC, in Table 13.
(§4) FIGS. 13A, 13B, 13C, and 13D. Exemplary compounds 50 and 46 degrade p38 isoforms in a manner that is rapid, sustained, and proteasome-dependent. (A) MDA-MB-231 cells were either pre-treated or not with the proteasome inhibitor epoxomicin (1 μM) or the neddylation inhibitor MLN4924 (1 μM) for 30 minutes and subsequently treated with either vehicle (DMSO), exemplary compound 50 (250 nM), or exemplary compound 46 (250 nM) for 6 hours. (B) Quantitative real-time PCR was performed after 24 hours of treatment with either vehicle (DMSO), exemplary compound 50 (250 nM), or exemplary compound 46 (250 nM) in MDAMB-231 cells. The dotted line represents DMSO-treated conditions standardized to a value of 1.0 and mRNA abundance (per treatment group) is represented as a foldchange relative to that value. Data is based on biological duplicates and is normalized to beta-tubulin. (C) Cycloheximide (CHX) chase assay. MDA-MB-231 cells were pre-treated with 100 μg/mL CHX for 1 hour prior to treating for the indicated times with either vehicle (DMSO), exemplary compound 50 (250 nM), or exemplary compound 46 (250 nM). Tubulin-normalized p38α and p38δ abundance values are reported beneath individual lanes. (D) MDA-MB231 cells were treated with either vehicle (DMSO), exemplary compound 50 (250 nM), or exemplary compound 46 (250 nM) for 24 hours before re-plating onto new plastic in fresh medium for an additional 24, 48, or 72 hours (“washout” conditions).
(§5) Cell culture. MDA-MB-231 and HeLa cells were obtained from the American Type Culture Collection (ATCC), cultured in RPMI-1640 (1×) and DMEM (1×) medium, respectively, containing 10% fetal bovine serum (FBS) and 1% penicillin-streptomycin and grown in a humidified incubator at 37° C. and 5% CO2.
(§6) Lysates from MDA-MB-231 cells were washed once with ice cold PBS (1×), followed by lysis in buffer containing 25 mM Tris [pH 7.5], 0.25% sodium deoxycholate, 1% Triton X-100, supplemented with 1× protease inhibitor cocktail (Roche) and phosphatase inhibitors (10 mM NaF, 1 mM Na3VO4, and 20 mM β-glycerophosphate), unless otherwise noted. Lysates were spun at 14,000×g for 10 minutes at 4° C. and supernatant was evaluated for protein content using a Pierce BCA Protein Assay (Thermo Fisher Scientific). 25 to 50 μg of protein was loaded onto 10% SDS-PAGE gels or 4-20% Criterion TGX precast gradient gels (Bio-Rad), transferred to nitrocellulose membranes, and probed with the specified antibodies overnight at 4° C. in 1×TBS-Tween (Tris buffered saline plus 0.02% Tween 20) containing 5% non-fat milk. Immunoblots were visualized using a Bio-Rad ChemiDoc imaging instrument and subsequently processed and quantified using the accompanying Bio-Rad ImageLab software.
(§7) MDA-MB-231 cells were plated at 3×10^5 cells per well in a 6-well dish, allowed to adhere overnight, and switched to serum-free RPMI-1640 (1×) media for 16 hours. Cells were then pre-treated with cycloheximide (Sigma) at 100 μg mL^−1 for 1 hour prior to adding either vehicle (DMSO) or PROTAC (250 nM). At the indicated timepoints, cells were immediately placed on ice, rinsed with 1×PBS, lysed, and boiled.
(§8) MDA-MB-231 cells were plated at 1.5×10^5 cells per well in a 6-well dish and allowed to adhere overnight. On the following day, all cells were treated with either vehicle (DMSO) or PROTAC (250 nM). […]

[4] = target: T2, p38α; test: as above; format: cell-based; settings: MDA-MB-231 cells, western blot; for Dmax: read-out: p38α Dmax (maximum percentage of degradation achieved)
Experimental: as §3, §4, §5, §6, §7, §8

[5] = target: T3, cMET (Homo sapiens, UniProt P08581); test: Cellular assay of target protein degradation (MDA-MB-231 cells, ELISA); format: cell-based
T3 construct: endogenous in cells; host or cells: MDA-MB-231
Experimental: as §1, §2

[6] = target: T4, MAK (Homo sapiens, UniProt P20794); test: KINOMEscan in vitro kinase binding; settings: screened at 1000 nM; lower number = stronger binding
T4 construct: purchased DiscoverRx Corporation (KINOMEscan platform, service)
Experimental: In Vitro Kinase Binding Affinity Determination for Example 1 and Example 2.
PROTAC in vitro binding affinities (Kd) to c-Met was determined using the KINOMEscan™ platform (DiscoverRx Corporation). The compounds were solubilized in DMSO and sent to DiscoverRx Corporation as 10 μM stock solutions.
Example 1 and Example 2 were screened at a 1000 nM concentration, and the results of the binding interactions are reported in “% Ctrl”, where a lower number indicates stronger binding. % Ctrl=[(test compound signal−positive control signal)/(negative control signal−positive control signal)]×100, wherein the negative control was DMSO.

[7] = read-out: p38α DC50 (concentration at which half-maximal degradation is achieved)

T2 sequence (Q16539 whole entry): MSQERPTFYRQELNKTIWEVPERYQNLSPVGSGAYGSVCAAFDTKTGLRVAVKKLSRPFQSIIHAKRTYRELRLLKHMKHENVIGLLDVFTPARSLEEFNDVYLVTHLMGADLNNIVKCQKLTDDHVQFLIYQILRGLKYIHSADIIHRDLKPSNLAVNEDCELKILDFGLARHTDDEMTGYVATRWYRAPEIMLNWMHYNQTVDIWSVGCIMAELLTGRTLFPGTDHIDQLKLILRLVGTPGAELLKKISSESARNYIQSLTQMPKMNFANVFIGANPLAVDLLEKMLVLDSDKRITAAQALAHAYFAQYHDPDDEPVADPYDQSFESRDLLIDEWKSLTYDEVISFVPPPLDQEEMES
T3 sequence (P08581 25-1390): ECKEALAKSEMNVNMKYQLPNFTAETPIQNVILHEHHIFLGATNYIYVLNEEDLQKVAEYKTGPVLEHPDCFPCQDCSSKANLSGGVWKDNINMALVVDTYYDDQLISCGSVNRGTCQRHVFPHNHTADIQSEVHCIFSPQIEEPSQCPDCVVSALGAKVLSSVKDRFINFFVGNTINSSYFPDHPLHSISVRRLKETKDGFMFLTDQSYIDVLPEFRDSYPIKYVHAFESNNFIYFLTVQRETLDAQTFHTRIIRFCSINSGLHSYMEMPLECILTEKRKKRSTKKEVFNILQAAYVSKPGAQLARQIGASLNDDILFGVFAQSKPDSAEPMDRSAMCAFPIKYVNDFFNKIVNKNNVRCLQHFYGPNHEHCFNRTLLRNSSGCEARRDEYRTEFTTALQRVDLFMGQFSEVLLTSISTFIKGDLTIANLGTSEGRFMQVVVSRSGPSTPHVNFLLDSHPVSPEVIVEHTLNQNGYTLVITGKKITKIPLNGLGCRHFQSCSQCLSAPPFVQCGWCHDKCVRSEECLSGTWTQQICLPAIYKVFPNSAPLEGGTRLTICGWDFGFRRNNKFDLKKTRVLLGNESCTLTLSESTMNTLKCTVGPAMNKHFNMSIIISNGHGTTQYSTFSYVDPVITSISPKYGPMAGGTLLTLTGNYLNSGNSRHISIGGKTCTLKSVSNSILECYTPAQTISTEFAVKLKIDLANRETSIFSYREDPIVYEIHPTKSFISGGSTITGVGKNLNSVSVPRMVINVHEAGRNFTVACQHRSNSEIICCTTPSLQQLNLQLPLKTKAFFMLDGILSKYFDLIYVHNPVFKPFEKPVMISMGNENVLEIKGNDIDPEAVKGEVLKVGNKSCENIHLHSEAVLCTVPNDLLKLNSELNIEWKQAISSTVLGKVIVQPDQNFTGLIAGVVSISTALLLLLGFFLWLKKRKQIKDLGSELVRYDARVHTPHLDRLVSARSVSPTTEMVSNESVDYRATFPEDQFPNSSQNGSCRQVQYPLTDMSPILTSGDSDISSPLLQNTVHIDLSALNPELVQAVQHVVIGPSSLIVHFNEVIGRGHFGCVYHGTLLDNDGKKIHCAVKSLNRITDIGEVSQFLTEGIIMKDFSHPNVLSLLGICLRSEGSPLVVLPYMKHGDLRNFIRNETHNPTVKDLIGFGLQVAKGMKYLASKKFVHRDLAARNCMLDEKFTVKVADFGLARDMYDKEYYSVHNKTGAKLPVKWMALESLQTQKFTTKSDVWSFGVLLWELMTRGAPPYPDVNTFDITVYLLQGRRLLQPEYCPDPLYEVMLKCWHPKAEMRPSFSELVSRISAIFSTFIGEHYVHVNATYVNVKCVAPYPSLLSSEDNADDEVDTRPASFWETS
T4 sequence (P20794 whole entry): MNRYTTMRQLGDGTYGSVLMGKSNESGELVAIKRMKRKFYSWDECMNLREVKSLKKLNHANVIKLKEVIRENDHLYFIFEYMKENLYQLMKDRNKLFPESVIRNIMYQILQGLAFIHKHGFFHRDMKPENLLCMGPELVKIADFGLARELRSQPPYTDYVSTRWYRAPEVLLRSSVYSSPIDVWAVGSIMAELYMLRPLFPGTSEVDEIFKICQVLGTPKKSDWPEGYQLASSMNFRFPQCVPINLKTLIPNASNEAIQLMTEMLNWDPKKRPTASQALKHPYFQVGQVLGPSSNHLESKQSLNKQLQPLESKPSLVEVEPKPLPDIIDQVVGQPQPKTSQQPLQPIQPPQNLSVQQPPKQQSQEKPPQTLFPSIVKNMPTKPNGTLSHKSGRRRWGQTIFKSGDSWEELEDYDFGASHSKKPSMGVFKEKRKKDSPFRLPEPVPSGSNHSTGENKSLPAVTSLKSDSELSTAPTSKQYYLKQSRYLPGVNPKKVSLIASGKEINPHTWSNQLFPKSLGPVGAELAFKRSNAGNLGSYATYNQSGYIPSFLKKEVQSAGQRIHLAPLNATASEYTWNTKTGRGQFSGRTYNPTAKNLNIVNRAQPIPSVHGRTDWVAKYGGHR

Row | SMILES | Dmax [1] | DC50 [1] | DC50 [2] | Dmax [2] | DC50 [3] | Dmax [3] | DC50 ([4]; read-out: p38α DC50) | Dmax [4] | Dmax [5] | DC50 [4, 7] | % Ctrl [6]
1 | COc1cc2c(Oc3ccc(NC(=O)C4(C(=O)Nc5ccc(F)cc5)CC4)cc3F)ccnc2cc1OCCCCOCCCCOc1cc(-c2scnc2C)ccc1CNC(=O)[C@@H]1C[C@@H](O)CN1C(=O)[C@H](C(C)C)N1Cc2ccccc2C1=O [Ex. 45] | 43% | > 5000 nM | > 5000 nM | 27% | > 5000 nM | 44% | > 5000 nM | 25% | – | – | –
2 | COc1cc2c(Oc3ccc(NC(=O)C4(C(=O)Nc5ccc(F)cc5)CC4)cc3F)ccnc2cc1OCCCOCCOCCC(=O)N[C@H](C(=O)N1C[C@H](O)C[C@H]1C(=O)NCc1ccc(-c2scnc2C)cc1)C(C)(C)C [Ex. 48, N-(3-fluoro-4-((7-(3-(2-(3-(((S)-1-((2S,4R)-4-hydroxy-2-((4-(4-methylthiazol-5-yl)benzyl)carbamoyl)pyrrolidin-1-yl)-3,3-dimethyl-1-oxobutan-2-yl)amino)-3-oxopropoxy)ethoxy)-propoxy)-6-methoxyquinolin-4-yl)oxy)phenyl)-N-(4-fluorophenyl)cyclopropane-1,1-dicarboxa-mide] | 91% | 91.7 nM | 18.8 nM | 99% | 91.7 nM | 91% | – | 99.4% | 44% | 18.8 nM | –
3 | COc1cc2c(Oc3ccc(NC(=O)C4(C(=O)Nc5ccc(F)cc5)CC4)cc3F)ccnc2cc1OCCCN1CCOCC1 [Foretinib, foretinib, reference compound] | – | – | – | – | – | – | – | – | – | – | 55 % Ctrl
4 | COc1cc2c(Oc3ccc(NC(=O)C4(C(=O)Nc5ccc(F)cc5)CC4)cc3F)ccnc2cc1OCCCOCCOCCCOc1cc(-c2scnc2C)ccc1CNC(=O)[C@@H]1C[C@@H](O)CN1C(=O)[C@H](C(C)C)N1Cc2ccccc2C1=O [Ex. 5] | – | – | – | – | 4900 nM | 52% | ≥ 5000 nM | 17% | – | – | –
5 | COc1cc2c(Oc3ccc(NC(=O)C4(C(=O)Nc5ccc(F)cc5)CC4)cc3F)ccnc2cc1OCCOCCOCCC(=O)N[C@H](C(=O)N1C[C@H](O)C[C@H]1C(=O)NCc1ccc(-c2scnc2C)cc1)C(C)(C)C [Ex. 49, N-(3-fluoro-4-((7-(2-(2-(3-(((S)-1-((2S,4R)-4-hydroxy-2-((4-(4-methylthiazol-5-yl)benzyl)carba-moyl)pyrrolidin-1-yl)-3,3-dimethyl-1-oxobutan-2-yl)amino)-3-oxopropoxy)ethoxy)ethoxy)-6-methoxyquinolin-4-yl)oxy)phenyl)-N-(4-fluorophenyl)cyclopropane-1,1-dicarboxamide] | 81% | 51.4 nM | 40.1 nM | 91% | 51.4 nM | 81% | – | 91% | 49% | 40.1 nM | –
6 | COc1cc2c(Oc3ccc(NC(=O)C4(C(=O)Nc5ccc(F)cc5)CC4)cc3F)ccnc2cc1OCCCOCCCOCCCOc1cc(-c2scnc2C)ccc1CNC(=O)[C@@H]1C[C@@H](O)CN1C(=O)[C@H](C(C)C)N1Cc2ccccc2C1=O [Ex. 47, N-(3-fluoro-4-((7-(3-(3-(3-(2-(((2S,4R)-4-hydroxy-1-((S)-3-methyl-2-(1-oxoisoindolin-2-yl)butano-yl)pyrrolidine-2-carboxamido)methyl)-5-(4-methylthiazol-5-yl)phenoxy)propoxy)-propoxy)propoxy)-6-methoxyquinolin-4-yl)oxy)phenyl)-N-(4-fluorophenyl)cyclopropane-1,1-dicarboxamide] | 23% | > 5000 nM | > 5000 nM | 12% | > 5000 nM | 33% | > 5000 nM | 20% | – | – | –

Source: patent US20180353501A1 (Arvinas, Inc., priority 2017, published 2018)
